Square brackets hold non-standard residues; d marks the D form. Peptide text beside a SMILES is read from it. Bpa = N[C@@H](Cc1ccc(C(=O)c2ccccc2)cc1)C(=O)O; Phe(4-Me) = Cc1ccc(C[C@H](N)C(=O)O)cc1; Met(O2) = CS(=O)(=O)CC[C@H](N)C(=O)O; Chg = N[C@H](C(=O)O)C1CCCCC1
Tests used:
[1] = target: T1, MCL-1 (Homo sapiens, UniProt Q07820); assay: Cell-free TR-FRET inhibition of MCL-1 binding to its peptide ligand; details: 3 h at room temperature, 0.25-1000 nM, n = 4
T1 construct: purchased BPS Biosciences 79506
T1 sequence (Q07820 whole entry): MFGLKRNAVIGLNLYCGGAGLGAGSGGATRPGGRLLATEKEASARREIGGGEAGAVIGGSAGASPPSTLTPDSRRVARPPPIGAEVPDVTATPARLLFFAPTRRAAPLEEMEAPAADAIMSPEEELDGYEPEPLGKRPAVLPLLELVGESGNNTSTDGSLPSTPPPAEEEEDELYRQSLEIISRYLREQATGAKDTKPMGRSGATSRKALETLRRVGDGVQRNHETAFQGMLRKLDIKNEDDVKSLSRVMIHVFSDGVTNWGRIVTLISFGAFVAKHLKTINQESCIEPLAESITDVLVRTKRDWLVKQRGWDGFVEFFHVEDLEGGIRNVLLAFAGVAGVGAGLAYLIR
Protocol: (§1) The inhibition of MCL-1 and BCL-xL binding to their respective ligands was quantified using time-resolved fluorescence resonance energy transfer (TR-FRET) assay kits (BPS Biosciences, Catalog Nos. 79506 and 50223). […] All samples and controls were run in quadruplicate, ensuring a final DMSO concentration below 0.1%. Selected hit compounds were tested at various concentrations: 0.25, 0.5, 1, 2, 4, 8, 16, 32, 64, 125, 500, and 1000 nM. The test assay components were prepared as follows: A 3× MCL TR-FRET assay buffer was diluted with two parts distilled water to create a 1× MCL TR-FRET assay buffer. The anti-His terbium-labeled donor and dye-labeled acceptor were diluted 200-fold in 1× MCL TR-FRET assay buffer. Each well received 5 μL of the anti-His terbium-labeled donor and dye-labeled acceptor mixture. In the negative control wells, 2 μL of inhibitor buffer and 1× MCL-1 TR-FRET assay buffer were added. For the positive control wells, 2 μL of inhibitor buffer and the MCL-1 peptide ligand were added. Subsequently, 2 μL of the diluted test inhibitor solution and the MCL-1 peptide ligand were added to the test inhibitor wells. Finally, 3 μL of diluted MCL-1 protein solution was added to each well, and the plate was incubated at room temperature for 3 hours.
(§2) TR-FRET Ratio=Emission at 665 nmEmission at 620 nm
(§3) The percent activity was calculated as follows:
(§4) Percent Activity=FRETsample-FRETnegFRETp-FRETneg×100%
(§5) where FRETsample is the sample FRET, FRETneg is the negative control FRET, and FRETp is the positive control FRET.

[2] = target: T2, BCL-xL (Homo sapiens, UniProt Q07817); assay: Cell-free TR-FRET inhibition of BCL-xL binding to its peptide ligand; details: 3 h at room temperature, 0.25-1000 nM, n = 4
T2 construct: His; purchased BPS Biosciences 50223
T2 sequence (Q07817 whole entry): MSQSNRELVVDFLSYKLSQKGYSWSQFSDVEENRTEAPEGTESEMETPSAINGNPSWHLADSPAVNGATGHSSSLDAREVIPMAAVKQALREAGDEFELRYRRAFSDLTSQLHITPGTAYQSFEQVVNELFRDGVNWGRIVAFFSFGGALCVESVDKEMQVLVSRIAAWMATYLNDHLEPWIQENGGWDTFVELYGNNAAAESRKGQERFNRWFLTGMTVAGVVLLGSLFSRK
Protocol: as §1, §2, §3, §4, §5

[3] = test system: AML cells (THP-1); assay: CCK-8 cytotoxicity for selectivity, 24 h; assay type: cell-based; details: Homo sapiens; THP-1, CCK-8, 24-hour incubation, n = 5
Protocol: (§6) The IC50 values of peptide drugs were determined in the experiments using the CCK-8 assay after a 24-hour incubation. The human acute leukemia cell line THP-1 was used as the leukemia cell model, while normal HSCs served as the control group. Higher SI values indicate greater selectivity of the peptide for leukemia cells over normal cells.

[4] = test system: HSCs (CD34+ hematopoietic stem cells from cord blood); assay: CCK-8 cytotoxicity for selectivity, 24 h; assay type: cell-based; details: Hematopoietic stem cell; human cord blood CD34+ HSCs, CCK-8, 24-hour incubation, n = 5; read-out: HSC IC50
Protocol: as §6

[5] = test system: AML cells (THP-1) relative to HSCs; assay: Selectivity index calculation; assay type: cell-based, human; details: n = 5
Protocol: The selectivity index (SI) was calculated to assess the specificity of peptide drugs toward leukemia cells relative to normal human HSCs. The SI is defined as the ratio of the IC50 value for HSCs to the IC50 value for leukemia cell lines, as shown in the following formula:
SI=IC50HSCsIC50leukemia cells
as §6

[6] = test system: THP-1 cells; assay: Apoptosis detection, Annexin V-FITC/PI flow cytometry; assay type: cell-based, human; details: THP-1, Venetoclax 0.8 µM, 48 h
Protocol: (§7) Cell apoptosis was measured following the manufacturer's instructions for the Annexin V-FITC kit (Elabscience, E-CK-A211-100). 1 × 10⁵ cells were co-cultured with varying concentrations of peptides or Venetoclax in 24-well plates for 48 hours. After incubation, the cells were collected by centrifugation, washed with PBS, and incubated with Annexin V-FITC and PI staining solution for 15 minutes under light-protected conditions. Apoptosis was then identified and analyzed using a flow cytometer (Beckman CytoFLEX, USA)[18].

[7] = test system: U-937 cells; assay: as above; assay type: cell-based, human; details: U-937, Venetoclax 8 µM, 48 h
Protocol: as §7

[8] = test system: THP-1 luciferase-transplanted xenografts; assay: AML mouse model, THP-1 luciferase xenograft
Protocol: To establish the AML mouse model, the animals were intravenously (IV) injected with luciferase-transfected THP-1 cells (THP-1 luciferase; 1 × 10⁶ cells/200 μL). The mice were randomly assigned to one of five experimental groups. […] Venetoclax was formulated for oral administration in a solution comprising 60% phosal 50 propylene glycol (PG), 30% polyethylene glycol (PEG) 400, and 10% ethanol, provided by MedChemExpress[30]. Before administration, both Venetoclax and BH3 peptide stock solutions were freshly diluted to working concentrations with sterile normal saline. The mice were anesthetized and administered 200 µL of a 15 mg/mL luciferase substrate, D-luciferin potassium salt (Beyotime Biotech, ST196-500mg), intraperitoneally. The progression of AML dissemination in mice was monitored until the day of euthanasia using an in vivo optical imaging system (Tanon ABL-X6; Tanon, Shanghai, China). The results were expressed as total flux (photons/s; radiance photons) ± standard deviation (SD) in both in vivo and ex vivo studies. The extent of the leukemia burden was determined by flow cytometry of peripheral blood human CD45+ cells. During the third and fourth weeks of the study, blood was collected from the orbital sinuses of mice in each group. […] Flow cytometry was employed to ascertain the expression of hCD45 in PBMCs. […] Following the completion of the designated treatment period, five mice from each group were randomly selected and euthanized by CO₂ asphyxiation. […] The bone marrow (from the tibia and femur), spleen, and liver were minced and made into single-cell suspensions in PBS, followed by red blood cell lysis. The cells were then stained with hCD45-PE antibody and analyzed by flow cytometry.
Liver, lung, kidney, spleen, and left femur tissues were formalin-fixed and paraffin-embedded. Bone tissue was decalcified with 10% EDTA decalcification solution prior to paraffin embedding. Paraffin blocks were then sectioned at 2-4 μm thickness and mounted on microscope slides. Tissue sections were deparaffinized and rehydrated using 100% xylene and ethanol solutions of decreasing concentrations.

IC50 [1]	IC50 [2]	Compound	other results
9.77 nM	30.8 nM	CC[C@H](C)[C@H](NC(=O)[C@H](CCCNC(=N)N)NC(=O)[C@H](CCCNC(=N)N)NC(=O)[C@H](CC(C)C)NC(=O)[C@H](CCC(=O)O)NC(=O)[C@H](CCC(N)=O)NC(=O)[C@H](C)NC(=O)[C@@H](NC(=O)[C@H](Cc1c[nH]c2ccccc12)NC(=O)[C@@H](NC(=O)[C@H](CCC(=O)O)NC(=O)[C@@H]1CCCN1)[C@@H](C)CC)C1CCCCC1)C(=O)NCC(=O)N[C@@H](CC(=O)O)C(=O)N[C@@H](CCC(=O)O)C(=O)N[C@@H](Cc1ccccc1)C(=O)N[C@@H](CC(N)=O)C(=O)N[C@@H](C)C(=O)N[C@@H](Cc1ccc(O)cc1)C(=O)N[C@@H](Cc1ccc(O)cc1)C(=O)N[C@@H](C)C(N)=O [F] (H-PEIW[Chg]AQELRRIGDEFNAYYA-NH2)	–
–	–	Cc1cc2c(C(C)C)c(O)c(O)c(C=O)c2c(O)c1-c1c(C)cc2c(C(C)C)c(O)c(O)c(C=O)c2c1O [AT-101, (R)-(-)-Gossypol]	IC50 [3]: 18900 nM; IC50 [4]: 67700 nM; Selectivity index (SI) combined with Venetoclax ([5]; IC50 HSCs / IC50 THP-1, in combination with Venetoclax (concentration not given)): 3.85; Selectivity index (SI) ([5]; IC50 HSCs / IC50 leukemia cells (THP-1), single agent): 3.56
48.9 nM	278 nM	CC[C@H](C)[C@H](NC(=O)[C@H](CCCNC(=N)N)NC(=O)[C@H](CCCNC(=N)N)NC(=O)[C@H](CC(C)C)NC(=O)[C@H](CCC(=O)O)NC(=O)[C@H](CCC(N)=O)NC(=O)[C@H](C)NC(=O)[C@@H](NC(=O)[C@H](Cc1c[nH]c2ccccc12)NC(=O)[C@H](CCS(C)(=O)=O)NC(=O)[C@H](CCC(=O)O)NC(=O)[C@@H]1CCCN1)C1CCCCC1)C(=O)NCC(=O)N[C@@H](CC(=O)O)C(=O)N[C@@H](CCC(=O)O)C(=O)N[C@@H](Cc1ccc(C)cc1)C(=O)N[C@@H](CC(N)=O)C(=O)N[C@@H](C)C(=O)N[C@@H](Cc1ccc(O)cc1)C(=O)N[C@@H](Cc1ccc(O)cc1)C(=O)N[C@@H](C)C(N)=O [C] (H-PE[Met(O2)]W[Chg]AQELRRIGDE[Phe(4-Me)]NAYYA-NH2)	–
–	–	CC1(C)CCC(CN2CCN(c3ccc(C(=O)NS(=O)(=O)c4ccc(NCC5CCOCC5)c([N+](=O)[O-])c4)c(Oc4cnc5[nH]ccc5c4)c3)CC2)=C(c2ccc(Cl)cc2)C1 [Venetoclax]	Apoptosis [6]: 47.3%; Apoptosis [7]: 49.3%; Average body weight at study end ([8]; 30 days, same regimens, n = 12, Vehicle ≈19 g): ≈ 20 g; Bioluminescence (tumor burden) over 30 days ([8]; Venetoclax 25 mg kg−1 p.o., TAT-I or vMIP-II-TAT-I 1.5 µmol kg−1 i.v., Combination both, every 2 days, n = 5): minimal therapeutic efficacy; Median survival ([8]; Venetoclax 25 mg kg−1 p.o., TAT-I or vMIP-II-TAT-I 1.5 µmol kg−1 i.v., Combination both, every 2 days, n = 7, Vehicle 35 days): 37 days; hCD45+ cells in PBMCs ([8]; week 3, flow cytometry, n = 5, Vehicle ≈7%): ≈ 5%
25.4 nM	58.5 nM	CC[C@H](C)[C@H](NC(=O)[C@H](CCCNC(=N)N)NC(=O)[C@H](CCCNC(=N)N)NC(=O)[C@H](CC(C)C)NC(=O)[C@H](CCC(=O)O)NC(=O)[C@H](CCC(N)=O)NC(=O)[C@H](C)NC(=O)[C@@H](NC(=O)[C@H](Cc1c[nH]c2ccccc12)NC(=O)[C@@H](NC(=O)[C@H](CCC(=O)O)NC(=O)[C@@H]1CCCN1)[C@@H](C)CC)C1CCCCC1)C(=O)NCC(=O)N[C@@H](CC(=O)O)C(=O)N[C@@H](CCC(=O)O)C(=O)N[C@@H](Cc1ccc(C)cc1)C(=O)N[C@@H](CC(N)=O)C(=O)N[C@@H](C)C(=O)N[C@@H](Cc1ccc(O)cc1)C(=O)N[C@@H](Cc1ccc(O)cc1)C(=O)N[C@@H](C)C(N)=O [D] (H-PEIW[Chg]AQELRRIGDE[Phe(4-Me)]NAYYA-NH2)	–

Compound	IC50 [1]	IC50 [2]	other results
CC[C@H](C)[C@H](NC(=O)[C@H](CCCNC(=N)N)NC(=O)[C@H](CCCNC(=N)N)NC(=O)[C@H](CC(C)C)NC(=O)[C@H](CCC(=O)O)NC(=O)[C@H](CCC(N)=O)NC(=O)[C@H](C)NC(=O)[C@@H](NC(=O)[C@H](Cc1c[nH]c2ccccc12)NC(=O)[C@H](CCS(C)(=O)=O)NC(=O)[C@H](Cc1ccc(C(=O)c2ccccc2)cc1)NC(=O)[C@@H]1CCCN1)[C@@H](C)CC)C(=O)NCC(=O)N[C@@H](CC(=O)O)C(=O)N[C@@H](CCC(=O)O)C(=O)N[C@@H](Cc1ccc(C)cc1)C(=O)N[C@@H](CC(N)=O)C(=O)N[C@@H](C)C(=O)N[C@@H](Cc1ccc(O)cc1)C(=O)N[C@@H](Cc1ccc(O)cc1)C(=O)N[C@@H](C)C(N)=O [G] (H-P[Bpa][Met(O2)]WIAQELRRIGDE[Phe(4-Me)]NAYYA-NH2)	206 nM	565 nM	–
CC[C@H](C)[C@H](NC(=O)[C@H](CCCNC(=N)N)NC(=O)[C@H](CCCNC(=N)N)NC(=O)[C@H](CC(C)C)NC(=O)[C@H](CCC(=O)O)NC(=O)[C@H](CCC(N)=O)NC(=O)[C@H](C)NC(=O)[C@@H](NC(=O)[C@H](Cc1c[nH]c2ccccc12)NC(=O)[C@H](CCS(C)(=O)=O)NC(=O)[C@H](Cc1ccc(C(=O)c2ccccc2)cc1)NC(=O)[C@@H]1CCCN1)C1CCCCC1)C(=O)NCC(=O)N[C@@H](CC(=O)O)C(=O)N[C@@H](CCC(=O)O)C(=O)N[C@@H](Cc1ccc(C)cc1)C(=O)N[C@@H](CC(N)=O)C(=O)N[C@@H](C)C(=O)N[C@@H](Cc1ccc(O)cc1)C(=O)N[C@@H](Cc1ccc(O)cc1)C(=O)N[C@@H](C)C(N)=O [B] (H-P[Bpa][Met(O2)]W[Chg]AQELRRIGDE[Phe(4-Me)]NAYYA-NH2)	122 nM	412 nM	–

— article PMC12279208, “Targeted Penetrating Motif Engineering of BH3 Mimetic: Harnessing Non‐Canonical Amino Acids for Coinhibition of MCL‐1 and BCL‐xL in Acute Myeloid Leukemia” (Advanced Science, 2025)
